# Test results from patent US20220204449A1, “BIASED AGONISTS OF OPIOID RECEPTORS” (ILDONG PHARMACEUTICAL CO., LTD., priority 2020, published 2022).
# Key:
# [1] = biological target: T1, human μ-opioid receptor, OPRM (Homo sapiens, UniProt P35372); assay: Dominant assay: cAMP assay with/without irreversible antagonist β-FNA, OPRM cell line; type: cell-based; settings: OPRM cell lines; β-FNA
# T1 construct: host or cells: HEK-293 overexpressing β-arrestin2 fused to a β-galactosidase fragment
# From the text: (§1) To confirm the agonist's efficacy in a nature-like system, we need inactivation of target receptors on the cell membrane. Most cell lines have an abundant target receptor population (also known as spare receptors). Therefore, agonists have more opportunity to constitute agonist-receptor conformation. In this environment, not only full agonists but also partial agonists can reach maximal response.
# (§2) If the partial agonist is selected as a full agonist, translational in vivo research will likely fail.
# (§3) Non-competitive, irreversible antagonists can be applicable to judge the pharmacological character of agonists because they permanently decrease the receptor population in the cell line system. β-FNA or β-CNA is used as a non-competitive and irreversible antagonist for OPRM, OPRD. Before cAMP assay, cells were incubated with β-FNA or β-CNA for 40 minutes. Afterwards, the procedure is the same.
# (§4) If a partial agonist compound acts as a full agonist due to receptor population (pseudo full agonist), it cannot sustain maximal response with reduced receptor population. However, a full agonist compound maintains their maximal response even though increased EC50.
# [2] = biological target: T2, human δ-opioid receptor, OPRD (Homo sapiens, UniProt P41143); assay: Dominant assay: cAMP assay with/without irreversible antagonist β-CNA, OPRD cell line; type: cell-based
# T2 construct: host or cells: HEK-293 overexpressing β-arrestin2 fused to a β-galactosidase fragment
# T2 sequence (P41143 whole entry, the tested form may be a part): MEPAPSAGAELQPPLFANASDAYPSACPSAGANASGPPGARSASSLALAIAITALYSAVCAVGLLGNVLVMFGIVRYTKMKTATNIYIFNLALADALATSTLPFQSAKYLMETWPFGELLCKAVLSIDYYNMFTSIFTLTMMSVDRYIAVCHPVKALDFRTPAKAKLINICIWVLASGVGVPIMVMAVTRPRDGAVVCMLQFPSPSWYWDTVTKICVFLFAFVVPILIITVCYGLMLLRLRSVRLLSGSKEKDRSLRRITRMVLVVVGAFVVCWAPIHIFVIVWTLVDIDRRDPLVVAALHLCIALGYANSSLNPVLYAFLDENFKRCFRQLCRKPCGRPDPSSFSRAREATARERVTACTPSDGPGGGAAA
# From the text: as §1, §2, §3, §4
# T1 sequence (P35372 whole entry, the tested form may be a part): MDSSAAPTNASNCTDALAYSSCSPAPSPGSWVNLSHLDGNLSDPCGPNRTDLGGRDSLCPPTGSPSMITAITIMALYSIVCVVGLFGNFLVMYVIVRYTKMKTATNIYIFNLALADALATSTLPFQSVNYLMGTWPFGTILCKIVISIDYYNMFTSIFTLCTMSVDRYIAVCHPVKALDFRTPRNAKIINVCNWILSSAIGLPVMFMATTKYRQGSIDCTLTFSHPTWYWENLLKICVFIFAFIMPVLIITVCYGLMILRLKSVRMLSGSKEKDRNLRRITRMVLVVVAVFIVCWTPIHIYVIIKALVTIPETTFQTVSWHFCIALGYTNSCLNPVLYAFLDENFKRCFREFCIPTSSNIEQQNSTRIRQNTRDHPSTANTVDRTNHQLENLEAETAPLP
SMILES,"maximal response on decreasing receptor population (dominant tendency), in words [1]","maximal response on decreasing receptor population (dominant tendency), in words ([2]; OPRD cell lines, β-CNA)","completeness of concentration-response curve, in words ([2]; OPRD system)"
"C[C@@H](NC(=O)[C@@H](N)Cc1ccc(O)cc1)C(=O)NCC(=O)N(C)[C@@H](Cc1ccccc1)C(=O)NCCO [DAMGO, [D-Ala^2, NMe-Phe^4, Gly-ol^5]-enkephalin, reference compound]",full agonist,–,–
"C=CCN1C[C@H](C)N([C@H](c2ccc(C(=O)N(CC)CC)cc2)c2cccc(OC)c2)C[C@H]1C [SNC80, reference compound]",–,full agonist,produced a full concentration-response curve
